Test results: US9743646B2, “Method of establishing isogenic multi-xenograft model and the use thereof” (Crown Bioscience Inc. (Taicang), priority 2014, dated 2017)

Legend:
Type in all cases: in vivo, Nude mice
[1] = test system: SW48-parental xenograft (HD PAR-006, KRAS WT); assay: Tumor volume of SW48-parental xenograft in isogenic dual-xenograft mice; conditions: Erlotinib 50 mg/kg p.o. once daily, 14 days, vs saline
Method: The SW48 series colorectal adenocarcinoma cells were obtained from Horizon Discovery Ltd (see below in Table 1 for Catalogue number details), and maintained in vitro as a monolayer culture in McCoy's 5A medium supplemented with 10% heat inactivated fetal bovine serum, 2 mM L-glutamine, with or without G418, at 37° C. in an atmosphere of 5% CO2 in air. The tumor cells were routinely subcultured every 3-5 days by trypsin-EDTA treatment. Cells growing in an exponential growth phase were harvested and counted for tumor inoculation. HD 103-002 cell line was derived from parental SW48 cell line HD PAR-006 with heterozygous knock-in of KRAS activating mutation-G13D; HD 103-007 cell line was derived from parental SW48 cell line HD PAR-006 with heterozygous knock-in of KRAS activating mutation-G12V. […]
(§1) The major endpoint was to evaluate the tumor growth. Tumor sizes were measured twice weekly in two dimensions using a caliper, and the volume were expressed in mm3 using the formula: V=0.5 a×b^2, where a and b are the long and short diameters of the tumor, respectively.

[2] = test system: SW48-KRAS (G13D/+) xenograft (HD 103-002); assay: Tumor volume of SW48-KRAS (G13D/+) xenograft in isogenic dual-xenograft mice
Method: (§2) The SW48 series colorectal adenocarcinoma cells were obtained from Horizon Discovery Ltd (see below in Table 1 for Catalogue number details), and maintained in vitro as a monolayer culture in McCoy's 5A medium supplemented with 10% heat inactivated fetal bovine serum, 2 mM L-glutamine, with or without G418, at 37° C. in an atmosphere of 5% CO2 in air. The tumor cells were routinely subcultured every 3-5 days by trypsin-EDTA treatment. Cells growing in an exponential growth phase were harvested and counted for tumor inoculation. HD 103-002 cell line was derived from parental SW48 cell line HD PAR-006 with heterozygous knock-in of KRAS activating mutation-G13D; HD 103-007 cell line was derived from parental SW48 cell line HD PAR-006 with heterozygous knock-in of KRAS activating mutation-G12V.
(§3) Each mouse is grafted subcutaneously at the left and right flank with SW48 tumor cells (1×10^7 cells) in 0.1 ml of PBS for tumor development, among which 15 mouse are grafted with 1×10^7HD PAR-006 cells at their left flank and with 1×10^7 HD 103-002 cells at their right flank, and the other 15 mouse are grafted with 1×10^7 HD PAR-006 cells at their left flank and with 1×10^7 HD103-007 cells at their right flank. Mice with xenografts are then allow sufficient time (in present embodiment, around 5-8 days) to develop solid tumor.
(§4) Isogenic dual-xenograft mice produced in accordance to the methods described in Example 1 were used to evaluate test agents for their efficacy on the disease associated with mutations of gene. More specifically, mice with different KRAS mutations were treated with EGFR inhibitors to address the question of resistant phenotypes elicited by different KRAS mutations. This design allows direct comparison of wild type and mutant isogenic pairs for treatment responses that are associated with the defined genetic variations.
as §1

[3] = test system: SW48-KRAS (G12V/+) xenograft (HD 103-007); assay: Tumor volume of SW48-KRAS (G12V/+) xenograft in isogenic dual-xenograft mice
Method: as §2, §3, §4, §1

[4] = Erlotinib 50 mg/kg p.o. once daily, 14 days
[5] = Erlotinib 50 mg/kg, p.o., Qd x 14, SW48 KRAS(G13D/+), tumor volume
[6] = Erlotinib 50 mg/kg, p.o., Qd x 14, SW48 KRAS(G12V/+), tumor volume

## C#Cc1cccc(Nc2ncnc3cc(OCCOC)c(OCCOC)cc23)c1 [Erlotinib]
[1]; dual model with SW48-KRAS (G12V/+)
  effect on tumor volume of the SW48-parental xenograft (FIG. 2A): reduced
[1]; dual model with SW48-KRAS (G13D/+)
  effect on tumor volume of the SW48-parental xenograft (FIG. 1A): significantly reduced
[2]; [4]
  response of SW48 KRAS (G13D/+) compared to the parental line: remains sensitive
[2]; Erlotinib 50 mg/kg p.o. once daily, 14 days, vs saline
  effect on tumor volume of the SW48-KRAS (G13D/+) xenograft (FIG. 1B): significantly reduced
[2]; [5]
  T/C on Day 21: 24%
  TGI on Day 21: 76%
[3]; [4]
  response of SW48 KRAS (G12V/+) compared to the parental line: resistant
[3]; Erlotinib 50 mg/kg p.o. once daily, 14 days, compared with parental xenograft
  reduction on the tumor volume of the SW48-KRAS (G12V/+) xenograft (FIG. 2B): not as significant as on the SW48-KRAS-parental xenograft
[3]; [6]
  T/C on Day 21: 86%
  TGI on Day 21: 14%
